Assay results reported in patent US10973782B2, “Pharmaceutical composition for improving or preventing progression of chronic kidney disease” (Frimline Private Limited, priority 2017, dated 2021).

Tested on: 5/6 Nephrectomy induced chronic kidney disease (CKD)
Assay: 5/6 Nephrectomy induced chronic kidney disease in rat
Type: in vivo, rat (male Wistar)
Conditions: 5/6 nephrectomy rats, mean; for Serum Analysis BUN / Serum Analysis Creatinine / Serum Analysis IL-6 / Urine Analysis Glomerular Filtration Rate: daily p.o. treatment for 10 weeks, end of 10th week; for % Decreased Creatinine / % Decreased in BUN / % Decreased in IL-6: serum; for % Decreased Creatinine / % Decreased in BUN / % Decreased in IL-6 / % Increased GFR: daily p.o. 10 weeks; for % Increased GFR: urine analysis
Description: Screening effect against 5/6 Nephrectomy induced chronic kidney disease (CKD) of synergistic combination or composition/formulation comprising PEA and other natural ingredients in rat. The following trials were carried out:
54 male Wistar rats (Rat Rattus) (6 per group) were maintained in animal house in a light/dark atmosphere based on a 12 hour cycle having temperature and relative humidity in the range of 25±2° C. and 30-70% respectively. To maintain the appropriate conditions, temperature and relative humidity were recorded three times daily. During complete experiment, animals were supplied with the standard certified rat pellet feed (manufactured by Keval sales corporation, Vadodara) and drinking water treated by the reverse osmosis ad libitum.
In order to evaluate the activity against chronic kidney disease, fifty four (54) male rats were screened and divided in to nine groups. For a comparative analysis, groups were divided as sham control (Group 1), disease control (Group 2), treatment groups with individual components (Group 3, Group 4, Group 5 and Group 6 as PEA, Cholecalciferol, Quercetin and Resveratrol respectively), test composition formulation of the present invention (Group 7 and Group 8 as PEA combinations) and reference standard drug (Group 9).
The animals under consideration were examined for a study period of 10 weeks and two-stage surgical procedure for kidney ligation and removal were performed.
Stage one: A ventral midline incision into the abdomen was made to expose the animal's left kidney, and the organ was freed from the surrounding tissue. A piece of suture was placed and ligated around each pole of the kidney at its one-third position. The one-third kidney on each pole was excised beyond the ligatures and the abdominal incision was closed.
Stage two: This procedure was performed 5-7 days after stage one. The animals were placed in ventral recumbancy and an incision was made parallel to the midline. The abdominal cavity was entered and the right kidney was made free from the surrounding tissue. The kidney was gently pulled out from the incision, and the adrenal gland was freed and replaced into the abdominal cavity. The renal blood vessels and the ureter were ligated or cauterized. The kidney was then removed by transecting the vessels and ureter just distal to the ligature or cauterized section. The skin incision was closed with wound clips.
Treatment. All treatment groups were treated on daily basis for 10 weeks after stage two of surgery. After completion of the study at the end of 10th week, each group was analyzed in terms of the evaluating parameters such as blood collection, biochemistry analysis, urine analysis and histopathology of kidney.

C=C1CC[C@H](O)C/C1=C/C=C1\CCC[C@]2(C)[C@@H]([C@H](C)CCCC(C)C)CC[C@@H]12 [Cholecalciferol]
Serum Analysis BUN: 75.63 mg/dL
Serum Analysis Creatinine: 1.40 mg/dL
Serum Analysis IL-6: 178.45 pg/mL
Urine Analysis Glomerular Filtration Rate: 5.65 mL/min/kg
% Decreased Creatinine: 7.02%
% Decreased in BUN: 8.05%
% Decreased in IL-6: 1.22%
% Increased GFR: 2.73%

CCCCc1nc(Cl)c(CO)n1Cc1ccc(-c2ccccc2-c2nn[nH]n2)cc1 [Losartan]
Serum Analysis BUN: 52.81 mg/dL
Serum Analysis Creatinine: 1.22 mg/dL
Serum Analysis IL-6: 141.67 pg/mL
Urine Analysis Glomerular Filtration Rate: 6.80 mL/min/kg
% Decreased Creatinine: 18.98%
% Decreased in BUN: 35.80%
% Decreased in IL-6: 21.58%
% Increased GFR: 23.64%

CCCCCCCCCCCCCCCC(=O)NCCO [PEA, Palmitoylethanolamide]
Serum Analysis BUN: 60.98 mg/dL
Serum Analysis Creatinine: 1.12 mg/dL
Serum Analysis IL-6: 162.18 pg/mL
Urine Analysis Glomerular Filtration Rate: 6.50 mL/min/kg
% Decreased Creatinine: 25.63%
% Decreased in BUN: 25.87%
% Decreased in IL-6: 10.22%
% Increased GFR: 18.18%

O=c1c(O)c(-c2ccc(O)c(O)c2)oc2cc(O)cc(O)c12 [Quercetin]
Serum Analysis BUN: 76.62 mg/dL
Serum Analysis Creatinine: 1.44 mg/dL
Serum Analysis IL-6: 175.15 pg/mL
Urine Analysis Glomerular Filtration Rate: 5.64 mL/min/kg
% Decreased Creatinine: 4.02%
% Decreased in BUN: 6.85%
% Decreased in IL-6: 3.04%
% Increased GFR: 2.55%

Oc1ccc(C=Cc2cc(O)cc(O)c2)cc1 [Resveratrol]
Serum Analysis BUN: 74.51 mg/dL
Serum Analysis Creatinine: 1.41 mg/dL
Serum Analysis IL-6: 174.42 pg/mL
Urine Analysis Glomerular Filtration Rate: 5.75 mL/min/kg
% Decreased Creatinine: 6.30%
% Decreased in BUN: 9.42%
% Decreased in IL-6: 3.45%
% Increased GFR: 4.55%
